Measurements taken from the supplement of paper PMC10307832.

Columns and labels:
Experiment in all cases: relative viability (nuclei count vs DMSO), 5 days (fraction); higher = more cells survive
HCC-78 = system: HCC-78
In short: (§1)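 Values are medians from duplicate plates. Each reflects relative viability, defined as the nuclei count of treated wells over that of vehicle wells. Lung cancer cell lines in 1536-well plates were pin-tool dosed one day after seeding with one drug alone or with a fixed anchor-drug dose plus five library-drug doses (not always all listed) in √10 steps, then fixed, stained and imaged at 4× after 5 days.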

NCI-H1975 = system: NCI-H1975
In short: as §1

LXF-289 = system: LXF-289
In short: as §1

PC-3 [JPC-3] = system: PC-3 [JPC-3]
In short: as §1

LC-2-ad = system: LC-2-ad
In short: as §1

LCLC-97TM1 = system: LCLC-97TM1
In short: as §1

NCI-H838 = system: NCI-H838
In short: as §1

NCI-H1651 = system: NCI-H1651
In short: as §1

ChaGo-K-1 = system: ChaGo-K-1
In short: as §1

NCI-H2087 = system: NCI-H2087
In short: as §1

NCI-H596 = system: NCI-H596
In short: as §1

LU99A = system: LU99A
In short: as §1

NCI-H1355 = system: NCI-H1355
In short: as §1

NCI-H650 = system: NCI-H650
In short: as §1

BEN = system: BEN
In short: as §1

NCI-H1666 = system: NCI-H1666
In short: as §1

NCI-H661 = system: NCI-H661
In short: as §1

Compound: COc1cc2nccc(Oc3ccc(NC(=O)Nc4cc(C)on4)c(Cl)c3)c2cc1OC [Tivozanib] + CC(C)C[C@H](NC(=O)[C@H](Cc1ccccc1)NC(=O)c1cnccn1)B(O)O [Bortezomib] (partner 0.002 µM)
- relative viability (HCC-78; first compound 0.005 µM): 0.383
- relative viability (HCC-78; first compound 0.01581 µM): 0.496
- relative viability (HCC-78; first compound 0.05 µM): 0.57
- relative viability (HCC-78; first compound 0.1581 µM): 0.549
- relative viability (HCC-78; first compound 0.5 µM): 0.452
- relative viability (NCI-H1975; first compound 0.005 µM): 0.376
- relative viability (NCI-H1975; first compound 0.01581 µM): 0.418
- relative viability (NCI-H1975; first compound 0.05 µM): 0.361
- relative viability (NCI-H1975; first compound 0.1581 µM): 0.363
- relative viability (NCI-H1975; first compound 0.5 µM): 0.257
- relative viability (LXF-289; first compound 0.005 µM): 0.952
- relative viability (LXF-289; first compound 0.01581 µM): 0.956
- relative viability (LXF-289; first compound 0.05 µM): 0.959
- relative viability (LXF-289; first compound 0.1581 µM): 1.03
- relative viability (LXF-289; first compound 0.5 µM): 0.964
- relative viability (PC-3 [JPC-3]; first compound 0.005 µM): 0.82
- relative viability (PC-3 [JPC-3]; first compound 0.01581 µM): 0.855
- relative viability (PC-3 [JPC-3]; first compound 0.05 µM): 0.847
- relative viability (PC-3 [JPC-3]; first compound 0.1581 µM): 0.835
- relative viability (PC-3 [JPC-3]; first compound 0.5 µM): 0.794
- relative viability (LC-2-ad; first compound 0.005 µM): 0.951
- relative viability (LC-2-ad; first compound 0.01581 µM): 1.04
- relative viability (LC-2-ad; first compound 0.05 µM): 0.971
- relative viability (LC-2-ad; first compound 0.1581 µM): 0.867
- relative viability (LC-2-ad; first compound 0.5 µM): 0.843
- relative viability (LCLC-97TM1; first compound 0.005 µM): 0.533
- relative viability (LCLC-97TM1; first compound 0.01581 µM): 0.584
- relative viability (LCLC-97TM1; first compound 0.05 µM): 0.913
- relative viability (LCLC-97TM1; first compound 0.1581 µM): 0.603
- relative viability (LCLC-97TM1; first compound 0.5 µM): 1
- relative viability (NCI-H838; first compound 0.005 µM): 0.939
- relative viability (NCI-H838; first compound 0.01581 µM): 0.877
- relative viability (NCI-H838; first compound 0.05 µM): 0.924
- relative viability (NCI-H838; first compound 0.5 µM): 0.723
- relative viability (NCI-H1651; first compound 0.005 µM): 0.895
- relative viability (NCI-H1651; first compound 0.01581 µM): 0.985
- relative viability (NCI-H1651; first compound 0.05 µM): 1.02
- relative viability (NCI-H1651; first compound 0.1581 µM): 0.865
- relative viability (NCI-H1651; first compound 0.5 µM): 0.986
- relative viability (ChaGo-K-1; first compound 0.005 µM): 0.907
- relative viability (ChaGo-K-1; first compound 0.01581 µM): 1.08
- relative viability (ChaGo-K-1; first compound 0.05 µM): 1
- relative viability (ChaGo-K-1; first compound 0.1581 µM): 0.969
- relative viability (ChaGo-K-1; first compound 0.5 µM): 0.935
- relative viability (NCI-H2087; first compound 0.005 µM): 0.644
- relative viability (NCI-H2087; first compound 0.01581 µM): 0.919
- relative viability (NCI-H2087; first compound 0.05 µM): 0.842
- relative viability (NCI-H2087; first compound 0.1581 µM): 0.77
- relative viability (NCI-H2087; first compound 0.5 µM): 0.739
- relative viability (NCI-H596; first compound 0.005 µM): 1.03
- relative viability (NCI-H596; first compound 0.01581 µM): 0.887
- relative viability (NCI-H596; first compound 0.05 µM): 0.918
- relative viability (NCI-H596; first compound 0.1581 µM): 0.993
- relative viability (NCI-H596; first compound 0.5 µM): 1.08
- relative viability (LU99A; first compound 0.005 µM): 1.15
- relative viability (LU99A; first compound 0.01581 µM): 1.07
- relative viability (LU99A; first compound 0.05 µM): 1.29
- relative viability (LU99A; first compound 0.5 µM): 1.06
- relative viability (NCI-H1355; first compound 0.005 µM): 1.09
- relative viability (NCI-H1355; first compound 0.01581 µM): 1.17
- relative viability (NCI-H1355; first compound 0.05 µM): 1.26
- relative viability (NCI-H1355; first compound 0.5 µM): 1.14
- relative viability (NCI-H650; first compound 0.005 µM): 0.447
- relative viability (NCI-H650; first compound 0.01581 µM): 0.956
- relative viability (NCI-H650; first compound 0.05 µM): 0.833
- relative viability (NCI-H650; first compound 0.1581 µM): 0.579
- relative viability (NCI-H650; first compound 0.5 µM): 0.497
- relative viability (BEN; first compound 0.005 µM): 0.703
- relative viability (BEN; first compound 0.01581 µM): 0.847
- relative viability (BEN; first compound 0.05 µM): 0.873
- relative viability (BEN; first compound 0.5 µM): 0.86
- relative viability (NCI-H1666; first compound 0.005 µM): 0.746
- relative viability (NCI-H1666; first compound 0.01581 µM): 0.792
- relative viability (NCI-H1666; first compound 0.05 µM): 0.835
- relative viability (NCI-H1666; first compound 0.1581 µM): 0.74
- relative viability (NCI-H1666; first compound 0.5 µM): 0.875
- relative viability (NCI-H661; first compound 0.005 µM): 0.682
- relative viability (NCI-H661; first compound 0.01581 µM): 0.818
- relative viability (NCI-H661; first compound 0.05 µM): 0.753
- relative viability (NCI-H661; first compound 0.1581 µM): 0.717
- relative viability (NCI-H661; first compound 0.5 µM): 0.85
